Results on 45 molecules are retold here after the Deep4Chem optical property database.

A short description of the data set: solvent given as SMILES.

On to `CCC1(CC)c2cc(B(c3c(C)cc(C)cc3C)c3c(C)cc(C)cc3C)ccc2-c2c1c1c(c3c2C(CC)(CC)c2cc(B(c4c(C)cc(C)cc4C)c4c(C)cc(C)cc4C)ccc2-3)C(CC)(CC)c2cc(B(c3c(C)cc(C)cc3C)c3c(C)cc(C)cc3C)ccc2-1`, for which the absorption maximum is on record as 362 nm (in C1CCOC1); 359 nm (in CC#N); 360 nm (in CC(C)=O); 362 nm (in CCCCCC); 364 nm (in Cc1ccccc1).

In the case of `C#CCn1c2ccccc2c2cc(/C=C/C3=[N+]4C(=C(c5ccc(I)cc5)c5c(C)c(Cl)c(/C=C/c6ccc7c(c6)c6ccccc6n7CC#C)n5[B-]4(F)F)C(C)=C3Cl)ccc21`, the absorption maximum is 694 nm (in CC#N), 705 nm (in CS(C)=O) and 703 nm (in ClC(Cl)Cl).

Take `CN(C)c1ccc(/C=C/c2nc3ccc(Br)cc3nc2-c2ccccc2)cc1`: the absorption maximum is given as 445 nm (in C1COCCO1), 448 nm (in CC#N) and 453 nm (in ClCCl).

In turn, `c1ccc(N(c2ccccc2)c2ccc(-c3ncc(-c4ccncc4)s3)cc2)cc1` gave an absorption maximum (in CO) of 397 nm.

`Cc1cc(C#N)ccc1N1c2ccccc2C(c2ccccc2)(c2ccccc2)c2ccccc21` displayed an absorption maximum (in Cc1ccccc1) of 349 nm.

On to `CC(C)[Si](C#Cc1c2nc3ccccc3nc2c(C#C[Si](C(C)C)(C(C)C)C(C)C)c2nc3c(ccc4ccccc43)nc12)(C(C)C)C(C)C`, for which the absorption maximum (in CCCCCC) is recorded as 649 nm.

Molecule `Cc1ccc(C2=C3C=CC(Sc4ccccc4)=[N+]3[B-](F)(F)n3c(Sc4ccccc4)ccc32)cc1` returned an absorption maximum (in C1CCOC1) of 577 nm.

In the case of `COc1cccc2c1-c1ccccc1C2=O`, the absorption maximum turned out to be 420 nm (in C1CCCCC1), 432 nm (in CC#N) and 432 nm (in CCO).

On to `Cc1ccc(C(=O)OCc2ccc3c4cccc5cccc(c6cccc2c63)c54)cc1`, for which, under “in CCO”, the absorption maximum is listed as 438 nm.

Molecule `CCCCOc1cc(C=C2c3ccccc3-c3ccccc32)c(OCCCC)cc1C=C1c2ccccc2C=Cc2ccccc21` showed an absorption maximum (in C1CCOC1) of 395 nm.

As for `C(=C\c1ncc2ccccc2n1)/c1ccc(N2CCCCC2)cc1`, the absorption maximum (in ClCCl) was found to be 385 nm.

Turning to `CCN(CC)c1ccc(/C=N/Nc2ccc(C#N)cc2)c(O)c1`, the absorption maximum runs as follows: (in CC#N) 382 nm; (in CCCCCC) 384 nm; (in CO) 368 nm; (in CS(C)=O) 391 nm; (in ClC(Cl)Cl) 373 nm.

`Oc1cccc(-c2nc(-c3ccccc3)c(-c3ccccc3)[nH]2)c1` returned an absorption maximum (in CO) of 300 nm.

Consider `c1ccc(-c2cc3cccc[n+]3[b-]3ccc(-c4cc[b-]5c(c4)c(-c4ccccc4)cc4cccc[n+]54)cc32)cc1`, for which the absorption maximum (in C1CCCCC1) is 517 nm.

For `CCCCCCc1ccc2c3c(ccc2c1)O[B-](F)(F)[N+](c1cc([N+]2=Cc4c(ccc5cc(CCCCCC)ccc45)O[B-]2(F)F)cc([N+]2=Cc4c(ccc5cc(CCCCCC)ccc45)O[B-]2(F)F)c1)=C3`, the absorption maximum (in C1CCOC1) was 418 nm, the absorption maximum (in CC#N) worked out at 419 nm, the absorption maximum (in Cc1ccccc1) is recorded as 433 nm and the absorption maximum (in ClCCl) came to 428 nm.

For the setting “in CN(C)C=O”, `c1ccc(CO[Si]23n4c5c6ccccc6c4/N=C4N=C(/N=c6/c7ccccc7c(n62)=c2c6ccccc6c(n23)=N5)c2ccccc2\4)cc1` (stereo unspecified) showed an absorption maximum of 658 nm.

`Fc1ccc2cc3cccc[n+]3cc2c1` returned an absorption maximum (in O) of 400 nm.

The molecule `S=P1(c2ccccc2)C(c2ccccc2)=Cc2cc3ccccc3cc21` (stereo unspecified) came in with an absorption maximum (in ClCCl) of 387 nm.

For the molecule `c1ccc2cc(-n3cnc4ccccc43)ccc2c1`, the absorption maximum (in C1CCCCC1) is given as 275 nm; the absorption maximum (in C1CCOC1) was found to be 277 nm; the absorption maximum (in CC#N) is 278 nm; the absorption maximum (in CCO) is 277 nm; the absorption maximum (in CCOC(C)=O) was 278 nm; the absorption maximum (in CCOCC) was 276 nm. The absorption maximum by setting is: (in CO) 275 nm; (in Cc1ccccc1) 275 nm; (in ClC(Cl)Cl) 276 nm.

Under “in c1cc(-c2cccc(-n3c4ccccc4c4ccccc43)c2)cc(-n2c3ccccc3c3ccccc32)c1”, `N#Cc1c(-n2c3ccccc3c3ccccc32)nc(-n2c3ccccc3c3ccccc32)c(C#N)c1-c1ccccc1` returned an absorption maximum of 374 nm.

As to `COc1ccc(-c2nc3c([nH]2)C2=CC(=O)S[C@]2(C)[C@@]2(C)SC(=O)C=C32)cc1`, the absorption maximum (in CC#N) stood at 392 nm.

`CCCCC1C(=O)c2cc(Oc3ccc(C(C)(C)C)cc3)c3c4c(Oc5ccc(C(C)(C)C)cc5)cc5c6c(cc(Oc7ccc(C(C)(C)C)cc7)c(c7c(Oc8ccc(C(C)(C)C)cc8)cc(c2c37)C1=O)c64)C1=C(C5=O)c2ccc3ccccc3[n+]2[B-](F)(F)O1` (stereo unspecified) showed an absorption maximum (in ClCCl) of 616 nm.

Consider `CC1=[N+]2C(=C(Oc3ccc4c(c3)CC[C@@H]3[C@@H]4CC[C@]4(C)C(=O)CC[C@@H]34)c3ccc(C)n3[B-]2(F)F)C=C1c1cc2n(c1)[B-](F)(F)[N+]1=CC=CC1=C2c1c(C)cc(C)cc1C`, for which the absorption maximum was 579.5 nm (in C1CCCCC1) and 574 nm (in CCOC(C)=O).

Take `F[B-]1(F)n2c(-c3ccccc3)cnc2-c2cccc[n+]21`: the absorption maximum runs as follows: (in C1CCCCC1) 412 nm; (in C1CCOC1) 394 nm; (in C1COCCO1) 394 nm; (in CC#N) 384 nm; (in CCCCCC) 412 nm; (in CO) 382 nm. The absorption maximum (in ClC(Cl)Cl) came to 369 nm.

The molecule `COC(=O)C1(C(=O)OC)Cc2c(C#Cc3ccc(OC)cc3)c(-c3ccc(OC)cc3)c3c(-c4ccccc4)c(-c4ccccc4)c(-c4ccccc4)c(-c4ccccc4)c3c2C1` yielded an absorption maximum (in C1CCOC1) of 348.89 nm.

Turning to `CCCCC(CC)CN1C(=O)c2cccc3c(C#Cc4ccc(N(c5ccc(C#Cc6ccc7c8c(cccc68)C(=O)N(CC(CC)CCCC)C7=O)cc5)c5ccc(C#Cc6ccc7c8c(cccc68)C(=O)N(CC(CC)CCCC)C7=O)cc5)cc4)ccc(c23)C1=O` (stereo unspecified), the absorption maximum by setting is: (in C1CCCCC1) 444 nm; (in C1CCOC1) 447 nm; (in CC#N) 454 nm; (in Cc1ccccc1) 446 nm; (in ClC(Cl)Cl) 453 nm.

For the setting “in ClC(Cl)Cl”, `C(#Cc1ccccc1)C(C#Cc1ccccc1)=Cc1ccc(C=C(C#Cc2ccccc2)C#Cc2ccccc2)s1` displayed an absorption maximum of 468 nm.

`CC[C@H](C)COc1ccc(C2=C3C(C)=C(c4ccc5ccc6cccc7ccc4c5c67)C(C)=[N+]3[B-](F)(F)n3c(C)c(-c4ccc5ccc6cccc7ccc4c5c67)c(C)c32)cc1`: the absorption maximum (in ClCCl) is 530 nm.

For `CCCCCCOc1ccc(N(c2ccc(OCCCCCC)cc2)c2ccc(-c3sc(-c4ccc(N(c5ccc(OCCCCCC)cc5)c5ccc(OCCCCCC)cc5)cc4)c4nc(-c5ccc(OC)cc5)c(-c5ccc(OC)cc5)nc34)cc2)cc1`, the absorption maximum (in ClCCl) is 590 nm.

Molecule `CCC1=C(C)C2=C(C)c3cc(I)cn3[B-](F)(F)[N+]2=C1C` registered an absorption maximum (in C1CCCCC1) of 517.5 nm; an absorption maximum (in CC(C)=O) of 502.5 nm; an absorption maximum (in CCO) of 506 nm; an absorption maximum (in CCOC(C)=O) of 504.5 nm; an absorption maximum (in CO) of 503.5 nm; an absorption maximum (in OCC(F)(F)F) of 499.5 nm.

`CCn1c2ccccc2c2c(N(c3ccccc3)c3ccccc3)cccc21` came in with an absorption maximum (in ClCCl) of 357 nm.

Turning to `CCOC(=O)/C=C/C1=C(c2ccc(C)cc2)C2=Nc3c(-c4ccc(C)cc4)cc(-c4ccc(C)cc4)n3[B-](F)(F)[N+]2=C1c1ccc(C)cc1`, the absorption maximum (in ClC(Cl)Cl) is on record as 663 nm.

As for `COc1ccc(C2=[N+]3C(=Nc4c(-c5ccc6ccccc6c5)cc(-c5ccc(OC)cc5)n4[B-]3(F)F)C(c3ccc4ccccc4c3)=C2)cc1`, the absorption maximum (in ClCCl) turned out to be 704 nm.

In turn, `CCCCCCC(CCCCCC)N1C(=O)c2cccc3c(-c4ccccc4)ccc(c23)C1=O` registered an absorption maximum (in CCCCCC) of 342.2 nm; an absorption maximum (in CCCCCCCCCCCCCC) of 343.4 nm; an absorption maximum (in CCCCCCCCCCCO) of 353.4 nm; an absorption maximum (in CCCCO) of 355.2 nm; an absorption maximum (in CN(C)C=O) of 355.2 nm; an absorption maximum (in Cc1ccccc1) of 346.8 nm. The absorption maximum (in ClC(Cl)Cl) is 355.4 nm.

On to `CC(=C(C#Cc1ccccc1)C#Cc1ccccc1)c1ccc(C(C)=C(C#Cc2ccccc2)C#Cc2ccccc2)cc1`, for which the absorption maximum (in ClC(Cl)Cl) stood at 360 nm.

Turning to `Fc1ccccc1-c1nc2sc3ccccc3c2s1`, the absorption maximum (in CS(C)=O) is 344 nm.

In the case of `CC(C)[Si](C#CC1=CC2=c3cc(C#C[Si](C(C)C)(C(C)C)C(C)C)c4nc(C(F)(F)C(F)(F)C(F)(F)F)nc5c(C#C[Si](C(C)C)(C(C)C)C(C)C)cc(c3c54)C3=CC(C#C[Si](C(C)C)(C(C)C)C(C)C)=C4N=C(C(F)(F)C(F)(F)C(F)(F)F)N=C1C4C32)(C(C)C)C(C)C` (stereo unspecified), the absorption maximum (in C1CCOC1) is reported as 516 nm.

Consider `CC1=CC(C)=[N+]2C1=Cc1cccn1[B-]2(F)F`, for which the absorption maximum reads like this: (in CCCCCC) 493 nm; (in CO) 493 nm; (in ClCCl) 498 nm.

For `O=C(N/N=C/c1ccccc1O)c1ccccc1O`, the absorption maximum (in C1CCOC1) came out at 334 nm; the absorption maximum (in CC#N) came out at 335 nm; the absorption maximum (in CC(C)=O) came out at 331 nm; the absorption maximum (in CCO) is 400 nm; the absorption maximum (in CN(C)C=O) was found to be 412 nm; the absorption maximum (in CS(C)=O) is on record as 385 nm. Also, under “in ClCCl”, the absorption maximum was determined as 335 nm.

With `Cc1ccc2c(c1)C(=O)c1ccncc1-2`, the absorption maximum is, setting by setting: (in CC#N) 408.95 nm; (in CCCCCC) 408.95 nm.

For the setting “in ClCCl”, `Cc1c(C(=O)c2ccccc2Cl)c2ccc3cccc4c5cccc6ccc1c(c65)c2c34` registered an absorption maximum of 390 nm.

On to `COc1ccc(C2=C/C(=C\c3ccc(C#N)cc3)C(=O)O2)cc1OC`, for which, under “in C1COCCO1”, the absorption maximum is on record as 428 nm.

For `CCOC(=O)c1c(-c2cc3ccccc3oc2=O)nn(-c2ccc(Br)cc2)c1C(=O)OCC`, the absorption maximum (in ClCCl) is recorded as 323 nm.

Molecule `Cc1cc(C)c(C2=C3C=CC4=[N+]3[B-]3(Oc5ccccc54)Oc4ccccc4-c4ccc2n43)c(C)c1` (stereo unspecified) showed an absorption maximum (in ClC(Cl)Cl) of 626 nm.

Under “in CC#N”, `CCN(CC)c1ccc2cc(/C=C/c3ccc([N+](=O)[O-])cc3)c(=O)oc2c1` returned an absorption maximum of 459 nm.
